Publication PMC9046089, “CCNE1 amplification is synthetic lethal with PKMYT1 kinase inhibition” (Nature, 2022)
“And” between values parts separate entries of the source, which are not always exact repeats. Equal values may be shown once.

Key:
Type in all cases: in vivo, mouse
[1] = system: OVCAR3 xenografts; assay: Cell line-derived xenograft, tumour growth; conditions: Gem 20mg/kg QWx4 IP
Procedure: (§1) HCC1569, OVCAR3 and SUM149PT cells were implanted at 5 × 10^6 cells per mouse into the right flanks of female CB17-SCID, SCID-beige and NOD-SCID mice respectively (5–7 weeks old; Charles River), in 1:1 Matrigel:medium (Matrigel Corning, cat. no. CB35248).
(§2) Gemcitabine was administered once weekly intraperitoneally in saline. Animals were monitored for tumour volume, clinical signs and body weight three times per week. Tumour volume was measured using a digital calliper and calculated using the formula 0.52 × L × W^2, where L is length and W is width. Response to treatment was evaluated for tumour growth inhibition (% TGI). […] TV is tumour volume and subscripts indicate treatment group and time of sampling. According to NIACC and IACUC approved animal protocols, mice were euthanized as soon as their tumour volume exceeded 2,000 mm^3. Change in body weight (BW) was calculated using the formula: %BW change = (BWlast − BWday0/BWday0) × 100. BW change was calculated based on individual body weight changes relative to day 0. Statistical significance relative to vehicle control or other test groups was established by one-way ANOVA followed by Fisher’s least significant difference test for multiple groups and unpaired t-test for two group comparisons (GraphPad Prism v9.0). Investigators were not blinded during data collection and analysis.

[2] = system: HCC1569 xenografts; assay: Cell line-derived xenograft, tumour growth; conditions: Gem 20mg/kg QWx4 IP
Procedure: as §1, §2

[3] = Body weight change of tumour-bearing mice; conditions: Gem 20mg/kg QWx4 IP, individual mice
Procedure: as §2

Nc1ccn([C@@H]2O[C@H](CO)[C@@H](O)C2(F)F)c(=O)n1 [Gem]
Tumor growth of OVCAR3 xenografts ([1]; time 0, individual animals): 127.251 and 90.8608 and 112.694 and 96.336 and 125.032 and 141.631 and 118.987 | Tumor growth of OVCAR3 xenografts ([1]; time 3, individual animals): 203.437 and 160.884 and 245.447 and 183.946 and 210.941 and 179.854 and 163.096 | Tumor growth of OVCAR3 xenografts ([1]; time 7, individual animals): 169.802 and 183.034 and 268.576 and 188.758 and 168.18 and 112.682 and 213.401 | Tumor growth of OVCAR3 xenografts ([1]; time 9, individual animals): 250.578 and 145.319 and 296.396 and 174.266 and 208.875 and 111.675 and 222.442 | Tumor growth of OVCAR3 xenografts ([1]; time 11, individual animals): 150.312 and 146.391 and 223.166 and 200.774 and 206.854 and 146.012 and 157.334 | Tumor growth of OVCAR3 xenografts ([1]; time 14, individual animals): 213.268 and 123.935 and 200.751 and 155.809 and 196.515 and 140.875 and 141.404 | Tumor growth of OVCAR3 xenografts ([1]; time 16, individual animals): 237.66 and 135.959 and 229.1 and 226.618 and 235.663 and 103.266 and 203.735 | Tumor growth of OVCAR3 xenografts ([1]; time 18, individual animals): 251.017 and 162.673 and 318.873 and 214.059 and 306.209 and 174.974 and 210.077 | Tumor growth of OVCAR3 xenografts ([1]; time 21, individual animals): 247.655 and 170.92 and 321.104 and 222.893 and 230.514 and 99.1867 and 166.154 | Tumor growth of OVCAR3 xenografts ([1]; time 23, individual animals): 217.609 and 142.992 and 287.288 and 218.481 and 211.021 and 149.048 and 110.272 | Tumor growth of OVCAR3 xenografts ([1]; time 25, individual animals): 172.222 and 104.59 and 228.551 and 206.723 and 216.753 and 107.406 and 123.877 | Tumor growth of OVCAR3 xenografts ([1]; time 28, individual animals): 184.75 and 98.3676 and 117.318 and 112.167 and 170.273 and 123.013 and 138.241 | Tumor growth of OVCAR3 xenografts ([1]; time 31, individual animals): 217.819 and 125.965 and 185.385 and 170.168 and 195 and 193.032 and 178.082 | Tumor growth of OVCAR3 xenografts ([1]; time 35, individual animals): 357.498 and 160.976 and 228.46 and 273.584 and 249.247 and 117.028 and 138.719 | Tumor growth of HCC1569 xenografts ([2]; time 0, individual animals): 105.749 and 117.204 and 102.711 and 148.478 and 128.24 and 85.4122 and 124.681 | HCC1569 tumor volume (mm3) ([2]; time 0, individual mice): 105.749 mm3 and 117.204 mm3 and 102.711 mm3 and 148.478 mm3 and 128.24 mm3 and 85.4122 mm3 and 124.681 mm3 | Tumor growth of HCC1569 xenografts ([2]; time 3, individual animals): 151.536 and 159.659 and 162.777 and 151.443 and 177.63 and 154.669 and 192.079 | HCC1569 tumor volume (mm3) ([2]; time 3, individual mice): 151.536 mm3 and 159.659 mm3 and 162.777 mm3 and 151.443 mm3 and 177.63 mm3 and 154.669 mm3 and 192.079 mm3 | Tumor growth of HCC1569 xenografts ([2]; time 7, individual animals): 138.854 and 145.293 and 143.642 and 108.998 and 199.13 and 137.034 and 160.487 | HCC1569 tumor volume (mm3) ([2]; time 7, individual mice): 138.854 mm3 and 145.293 mm3 and 143.642 mm3 and 108.998 mm3 and 199.13 mm3 and 137.034 mm3 and 160.487 mm3 | Tumor growth of HCC1569 xenografts ([2]; time 9, individual animals): 174.796 and 137.503 and 143.242 and 176.878 and 226.134 and 163.467 and 188.183 | HCC1569 tumor volume (mm3) ([2]; time 9, individual mice): 174.796 mm3 and 137.503 mm3 and 143.242 mm3 and 176.878 mm3 and 226.134 mm3 and 163.467 mm3 and 188.183 mm3 | Tumor growth of HCC1569 xenografts ([2]; time 11, individual animals): 223.015 and 184.936 and 195 and 179.883 and 241.724 and 153.608 and 171.36 | HCC1569 tumor volume (mm3) ([2]; time 11, individual mice): 223.015 mm3 and 184.936 mm3 and 195 mm3 and 179.883 mm3 and 241.724 mm3 and 153.608 mm3 and 171.36 mm3 | Tumor growth of HCC1569 xenografts ([2]; time 14, individual animals): 204.003 and 261.558 and 183.38 and 118.879 and 239.252 and 185.171 and 204.752 | HCC1569 tumor volume (mm3) ([2]; time 14, individual mice): 204.003 mm3 and 261.558 mm3 and 183.38 mm3 and 118.879 mm3 and 239.252 mm3 and 185.171 mm3 and 204.752 mm3 | Tumor growth of HCC1569 xenografts ([2]; time 16, individual animals): 195.461 and 216.259 and 164.879 and 153.977 and 196.654 and 193.17 and 190.906 | HCC1569 tumor volume (mm3) ([2]; time 16, individual mice): 195.461 mm3 and 216.259 mm3 and 164.879 mm3 and 153.977 mm3 and 196.654 mm3 and 193.17 mm3 and 190.906 mm3 | Tumor growth of HCC1569 xenografts ([2]; time 18, individual animals): 221.924 and 212.425 and 129.02 and 208.213 and 166.677 and 229.196 and 227.014 | HCC1569 tumor volume (mm3) ([2]; time 18, individual mice): 221.924 mm3 and 212.425 mm3 and 129.02 mm3 and 208.213 mm3 and 166.677 mm3 and 229.196 mm3 and 227.014 mm3 | Tumor growth of HCC1569 xenografts ([2]; time 21, individual animals): 185.067 and 156.685 and 149.724 and 161.993 and 145.441 and 216.395 and 247.024 | HCC1569 tumor volume (mm3) ([2]; time 21, individual mice): 185.067 mm3 and 156.685 mm3 and 149.724 mm3 and 161.993 mm3 and 145.441 mm3 and 216.395 mm3 and 247.024 mm3 | Tumor growth of HCC1569 xenografts ([2]; time 23, individual animals): 177.467 and 131.768 and 165.163 and 189.467 and 130.853 and 205.401 and 303.013 | HCC1569 tumor volume (mm3) ([2]; time 23, individual mice): 177.467 mm3 and 131.768 mm3 and 165.163 mm3 and 189.467 mm3 and 130.853 mm3 and 205.401 mm3 and 303.013 mm3 | Change in body weight (%) HCC1569 ([3]; time 0): 0% | Change in body weight (%) HCC1569 ([3]; time 3): 2.186% and 4.278% and -2.094% and 2.073% and 1.538% and -0.9709% and -1.493% | Change in body weight (%) HCC1569 ([3]; time 7): 3.279% and 3.743% and 1.047% and 5.181% and 1.026% and 0% and 1.99% | Change in body weight (%) HCC1569 ([3]; time 9): 0.5464% and 3.209% and 0.5236% and 3.109% and 2.5641% and 2.427% and 1.99% | Change in body weight (%) HCC1569 ([3]; time 11): 3.279% and 2.6738% and 1.571% and 2.591% and 0.5128% and 1.456% and 3.483% | Change in body weight (%) HCC1569 ([3]; time 14): 7.104% and 10.1604% and 2.6178% and 8.808% and 4.103% and 2.913% and 2.985% | Change in body weight (%) HCC1569 ([3]; time 16): 9.29% and 6.417% and 2.6178% and 5.181% and 3.077% and 4.854% and 4.975% | Change in body weight (%) HCC1569 ([3]; time 18): 8.197% and 8.556% and 3.141% and 6.218% and 3.59% and 6.796% and 0.995% | Change in body weight (%) HCC1569 ([3]; time 21): 12.5683% and 10.6952% and 5.759% and 9.326% and 8.205% and 11.6505% and 10.4478% | Change in body weight (%) HCC1569 ([3]; time 23): 13.1148% and 9.626% and 4.712% and 9.845% and 6.154% and 6.311% and 3.9801% | Change in body weight (%) OVCAR3 ([3]; day 0): 0% | Change in body weight (%) OVCAR3 ([3]; day 3): 1.389% and -3.111% and 1.796% and -4.018% and -0.4608% and -5.195% and 2.427% | Change in body weight (%) OVCAR3 ([3]; day 7): 4.63% and 0.4444% and 0.5988% and -2.232% and -0.9217% and 0% and 3.8835% | Change in body weight (%) OVCAR3 ([3]; day 9): 4.167% and -2.667% and 0% and -0.8929% and -3.226% and -2.1645% and 3.8835% | Change in body weight (%) OVCAR3 ([3]; day 11): 0% (2×) and -3.556% and 1.796% and -1.786% and -3.687% and 7.767% | Change in body weight (%) OVCAR3 ([3]; day 14): 2.778% and -1.333% and 0.5988% and -0.8929% and 0% and 0.8658% and 9.709% | Change in body weight (%) OVCAR3 ([3]; day 16): 3.7037% and -2.667% and -0.5988% and -1.786% and -4.147% and 0.4329% and 7.282% | Change in body weight (%) OVCAR3 ([3]; day 18): 4.63% and -2.222% and 0.5988% and -0.4464% and 1.843% and -1.7316% and 4.854% | Change in body weight (%) OVCAR3 ([3]; day 21): 8.7963% and 1.778% and 1.796% and -0.4464% and 2.765% and 0% and 8.252%
